Patent US4853385A, “7-N,8-N-Ethylenemitomycin 8-imines” (Kyowa Hakko Kogyo Co., Ltd., priority 1987, dated 1989)

Assays:
[1] = test system: lymphocytic leukemia P-388; test: Antitumor activity against lymphocytic leukemia P-388; format: in vivo, CDF1 mice (P-388 from DBA/2 mice); settings: single i.p., 33-day observation
Protocol: (§1) Some compounds were chosen from Compound I and antitumor activity against lymphocytic leukemia P-388 and mitomycin C-resistant P-388 was measured.
The experiment was carried out by the following method.
(§2) From the peritoneal cavity of P-388 ascitic tumor-bearing mice (DBA/2) 7 days after the implantation, an ascitic fluid was collected. The cell number of P-388 in the ascitic fluid was counted, and the cells were suspended in sterile physiological saline to prepare a tumor cell suspension containing 5×10^6 cells/ml. 0.2 ml (containing 1×10^6 cells) of the suspension was implanted intraperitoneally into CDF1 mice weighing 20 to 25 g. The test compound was intraperitoneally administered to each mouse of one test group consisting of 6 CDF1 mice at a single dosage in 24 hours after the implantation of the tumor. 33-Day observation gave the survived life span for each mouse. Evaluation of the effect of the test compound was made by a ratio of a mean survival days after the implantation of the mice treated with the test compound to a mean survival days of the mice untreated with the test compound in the control group (Increased Life Span, ILS%). Then, ILS*, which is a ratio of ILS % of the test compound to ILS % of mitomycin C used as a reference compound under the same conditions, was calculated and shown in Table 4.

[2] = Acute toxicity (LD50, Beherns Kaerber's method); settings: mouse, in vivo, ip; single i.p. administration, 14 days observation, ddY mice
Protocol: (§3) Some compounds were chosen from Compound I, and antitumor activity (ED50) against Sarcoma 180 solid tumor and acute toxicity (LD50) were measured.
Each animal of the test group consisting of 5 ddY mice was administered intraperitoneally once with a test compound. […] The LD50 was determined by Beherns Kaerber's method.

Sarcoma 180 solid tumor = test: Antitumor activity against sarcoma 180 solid tumor (tumor volume T/C, ED50); format: in vivo; settings: ddY mice; for CI (chemotherapy index, LD50/ED50): sarcoma 180 solid tumor, i.p.; for ED50: Mus musculus, Sarcoma-180, ip, 168 h, i.p. 24 h after s.c. implantation, tumor volume at 7 days, dose for T/C 0.5
Protocol: as §3
(1) Effect on sarcoma 180 solid tumor
Sarcoma 180 cells of 5×10^6 were intraperitoneally implanted into ddY mice. Seven days after, the cells were collected from the ascites. The cells were washed once with a sterile physiological saline, and the cells were suspended in sterile physiological saline to prepare a cell suspension containing 5×10^7 cells per ml. 0.1 ml of the suspension was subcutaneously implanted into the right axilla of male ddY mice weighing 20±2 g. The test compound was dissolved in physiological saline with or without addition of Tween 80 and was administered intraperitoneally into each mouse of a group consisting of 5 mice at a dose of 0.1-0.2 ml, 24 hours after the implantation of the tumor cells.
The anti-tumor activity was determined in the following manner. 7 days after the implantation, the major axis (a) and the minor axis (b) of the tumor were measured to calculate a value of "a×b^2 /2" which corresponds to the volume of the tumor. The anti-tumor activity was expressed by the ratio (T/C) of the volume (T) of the tumors of the group of animals administered with the test compound to the corresponding volume (C) of tumors of the untreated animals.
(2) Determination of ED50 :
On graph paper, T/C was indicated by an arithmetic scale on the longitudinal axis and the administered amount of the test compound was indicated by a logarithmic scale on the lateral axis. The relationship between the dose and T/C was plotted by a straight line determined by the method of least squares, from which a dose corresponding to T/C of 0.5 was obtained.
CI in the table indicates chemotherapy index and given by:
As is clear from this definition, the CI value reflects selective toxicity against tumor. As the CI value is larger, the effect as an antitumor agent is more excellent, and from a clinical viewpoint, allowance of chemicals in dosage becomes broader. Therefore, the CI value is one of the most important indices in evaluation of antitumor agents.

[3] = test system: mitomycin C-resistant P-388; test: Antitumor activity against mitomycin C-resistant P-388; format: in vivo, CDF1 mice (P-388 from DBA/2 mice); settings: single i.p.
Protocol: as §1, §2
Further, the experiment was carried out in the same manner as above, using lymphocytic leukemia P-388 resistant to mitomycin C. Evaluation of the effect of the test compound is shown by a ratio (ILS %) to a mean survival data of the control group (untreated mice).

In the case of `CO[C@@]12[C@H](COC(N)=O)C3=C(C(=O)C(C)=C4NCCN=C43)N1C[C@H]1[C@@H]2N1C` (stereo partly drawn) [Compound 1, 7-N,8-N-ethyleneporfiromycin 8-imine], the “ILS* (ratio of ILS % of test compound to ILS % of mitomycin C)” value ([1]; P-388, dose 1.5 mg/kg) is reported as 0.60, the LD50 at 336 h [2] is reported as 2.6 mg/kg and the “CI (chemotherapy index, LD50/ED50)” value (Sarcoma 180 solid tumor) is reported as 1.73. The ED50 (Sarcoma 180 solid tumor) was 1.5 mg/kg and the “ILS(%) (ratio to mean survival of the untreated control group)” value ([3]; mitomycin C-resistant P-388, dose 1.5 mg/kg) was 135%.

With `CC1=C2NCCN=C2C2=C(C1=O)N1C[C@H]3[C@H](N3C)[C@]1(O)[C@H]2COC(N)=O` (stereo partly drawn) [Compound 2, 7-N,8-N--Ethylenemitomycin D 8-imine] the LD50 at 336 h [2] was 22.5 mg/kg, the “CI (chemotherapy index, LD50/ED50)” value (Sarcoma 180 solid tumor) was 2.12 and the ED50 (Sarcoma 180 solid tumor) was 10.6 mg/kg.

For `CO[C@]12[C@@H]3[C@H](CN1C1=C(C4=NCCNC4=C(C)C1=O)[C@@H]2COC(N)=O)N3C` (stereo partly drawn) [Compound 3, 7-N,8-N--Ethylenemitomycin E 8-imine], the LD50 at 336 h [2] was 5.6 mg/kg, the “CI (chemotherapy index, LD50/ED50)” value (Sarcoma 180 solid tumor) was 1.51 and the ED50 (Sarcoma 180 solid tumor) was 3.7 mg/kg.

With `C=C1C2=C(C(=O)C(C)=C3NCCN=C32)N2C[C@H]3[C@H](N3C)[C@]12O` (stereo partly drawn) [Compound 4, 9a-O--Demethyl-7-N,8-N--ethylenemitomycin G 8-imine] the LD50 at 336 h [2] was 100 mg/kg, the “CI (chemotherapy index, LD50/ED50)” value (Sarcoma 180 solid tumor) was 2.11 and the ED50 (Sarcoma 180 solid tumor) was 47.5 mg/kg.

In the case of `CO[C@@]12[C@H](COC(N)=O)C3=C(C(=O)C(C)=C4NC5CCCCC5N=C43)N1C[C@H]1[C@@H]2N1C` (stereo partly drawn) [Compound 5, 7-N,8-N--(1,2-Cyclohexylene) porfiromycin 8-imine], the “ILS* (ratio of ILS % of test compound to ILS % of mitomycin C)” value ([1]; P-388, dose 1.25 mg/kg) is reported as 0.56 and the “ILS(%) (ratio to mean survival of the untreated control group)” value ([3]; mitomycin C-resistant P-388, dose 1.25 mg/kg) is reported as 144%.

In the case of `CO[C@@]12[C@H](COC(N)=O)C3=C(C(=O)C(C)=C4NCCN=C43)N1C[C@@H]1N[C@@H]12` [Compound A, 7-N,8-N-ethylenemitomycin C 8-imine, reference compound], the “ILS* (ratio of ILS % of test compound to ILS % of mitomycin C)” value ([1]; P-388, dose 100 mg/kg) is reported as 0.43, the LD50 at 336 h [2] is reported as 6.5 mg/kg and the “CI (chemotherapy index, LD50/ED50)” value (Sarcoma 180 solid tumor) is reported as 1.10. For the same compound, the ED50 (Sarcoma 180 solid tumor) was 5.9 mg/kg and the “ILS(%) (ratio to mean survival of the untreated control group)” value ([3]; mitomycin C-resistant P-388, dose 100 mg/kg) was 107%.
